Measured values as given in patent US20230104936A1, “TRPML MODULATORS” (Casma Therapeutics, Inc., priority 2019, published 2023).

Test system: TFEB
Assay: TFEB nuclear translocation assay, HeLa wt cells
Assay type: cell-based
Details: 2 hrs compound treatment, Table 1 does not say HeLa wt or TRPML1 KO
Outline: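 HeLa wt cells were treated with compound for 2 hrs at 37° C, then fixed in 4% PFA and immunostained for TFEB with an Alexa 488 secondary and Hoechst nuclear counterstain. Automated epifluorescence imaging at ×20 gave the ratio of nuclear TFEB intensity to a perinuclear ring region, from which AC50 was derived.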

## O=S(=O)(c1ccc2c(c1)CCC2)N1Cc2cccc(N3CCOCC3)c2C1 [Compound A-819, 2-(2,3-dihydro-1H-indene-5-sulfonyl)-4-(morpholin-4-yl)-2,3-dihydro-1H-isoindole]
Homo sapiens, HeLa, 2 h
  AC50: ≥ 10 µM

## CN1CC2(CCN(c3c(NS(=O)(=O)c4ccc(S(=O)(=O)N(C)C)cc4)ccc4c3cnn4C)CC2)c2ccc(F)cc21 [Compound A-247, N4-(4-{6-fluoro-1-methyl-1,2-dihydrospiro[indole-3,4′-piperidin]-1′-yl}-1-methyl-1H-indazol-5-yl)-N1,N1-dimethylbenzene-1,4-disulfonamide]
Homo sapiens, HeLa, 2 h
  AC50: ≤ 2 µM

## C[C@@H]1CN(CC2CCN(c3c(NS(=O)(=O)c4ccc(S(=O)(=O)N(C)C)cc4)cccc3C(F)F)CC2)C[C@H](C)O1 [Compound A-831, N4-[3-(difluoromethyl)-2-(4-{[(2R,6S)-2,6-dimethylmorpholin-4-yl]methyl}piperidin-1-yl)phenyl]-N1,N1-dimethylbenzene-1,4-disulfonamide]
Homo sapiens, HeLa, 2 h
  AC50: ≤ 2 µM

## C[C@@H]1CN(C2CCN(c3c(F)cccc3NS(=O)(=O)c3ccc(S(=O)(=O)N(C)C)cc3)CC2)C[C@H](C)O1 [Compound A-868, N4-(2-{4-[(2R,6S)-2,6-dimethylmorpholin-4-yl]piperidin-1-yl}-3-fluorophenyl)-N1,N1-dimethylbenzene-1,4-disulfonamide]
Homo sapiens, HeLa, 2 h
  AC50: ≤ 2 µM

## O=S(=O)(Nc1cccc(F)c1N1CCC(CN2C3COCC2C3)CC1)c1ccc(C(F)(F)C2CC2)cc1 [Compound A-898, 4-(cyclopropyldifluoromethyl)-N-{3-fluoro-2-[4-({3-oxa-6-azabicyclo[3.1.1]heptan-6-yl}methyl)piperidin-1-yl]phenyl}benzene-1-sulfonamide]
Homo sapiens, HeLa, 2 h
  AC50: ≥ 10 µM

## CC1(C)CC2(CCN(c3ccccc3NS(=O)(=O)c3ccn(C4CC4(F)F)n3)CC2)CO1 (centres unmarked) [Compound A-689, 1-(2,2-difluorocyclopropyl)-N-(2-{3,3-dimethyl-2-oxa-8-azaspiro[4.5]decan-8-yl}phenyl)-1H-pyrazole-3-sulfonamide]
Homo sapiens, HeLa, 2 h
  AC50: ≥ 10 µM

## CC(C)S(=O)(=O)c1ccc(S(=O)(=O)Nc2ccccc2N2CCC(O)(c3ccc(F)cn3)CC2)cc1 [Compound A-413]
Homo sapiens, HeLa, 2 h
  AC50: 8.01 to 9.99 µM

## CN(C)S(=O)(=O)c1ccc(S(=O)(=O)N(C)c2cc(Cl)ccc2N2CCOCC2)cc1 [Compound A-285, N1-[5-chloro-2-(morpholin-4-yl)phenyl]-N1,N4,N4-trimethylbenzene-1,4-disulfonamide]
Homo sapiens, HeLa, 2 h
  AC50: ≥ 10 µM

## CC(c1cccc(F)c1N1CCC(CN2C3CCC2COC3)CC1)S(=O)(=O)c1ccc2c(c1)CCC2 (centres unmarked) [Compound A-908, 8-[(1-{2-[1-(2,3-dihydro-1H-indene-5-sulfonyl)ethyl]-6-fluorophenyl}piperidin-4-yl)methyl]-3-oxa-8-azabicyclo[3.2.1]octane]
Homo sapiens, HeLa, 2 h
  AC50: 2.01 to 8 µM

## COCC1(C)CCN(c2ccccc2NS(=O)(=O)c2cccc(C)c2)CC1 [Compound A-618, N-{2-[4-(methoxymethyl)-4-methylpiperidin-1-yl]phenyl}-3-methylbenzene-1-sulfonamide]
Homo sapiens, HeLa, 2 h
  AC50: 2.01 to 8 µM

## O=S(=O)(Nc1cc(Cl)ccc1N1CC23CCC2(COC3)C1)c1ccc2c(c1)CCC2 (centres unmarked) [Compound A-344, N-(5-chloro-2-{3-oxa-7-azatricyclo[3.3.2.0^1,^5]decan-7-yl}phenyl)-2,3-dihydro-1H-indene-5-sulfonamide]
Homo sapiens, HeLa, 2 h
  AC50: 2.01 to 8 µM

## CC1(C)Cc2cc(S(=O)(=O)Nc3ccccc3N3CCC(C(C)(F)F)CC3)ccc2O1 [Compound A-636, N-{2-[4-(1,1-difluoroethyl)piperidin-1-yl]phenyl}-2,2-dimethyl-2,3-dihydro-1-benzofuran-5-sulfonamide]
Homo sapiens, HeLa, 2 h
  AC50: ≤ 2 µM

## CN(C)S(=O)(=O)c1ccc(S(=O)(=O)Nc2ccccc2N2CCN(CC(C)(F)F)CC2)cc1 [Compound A-525, N4-{2-[4-(2,2-difluoropropyl)piperazin-1-yl]phenyl}-N1,N1-dimethylbenzene-1,4-disulfonamide]
Homo sapiens, HeLa, 2 h
  AC50: ≤ 2 µM

## CN1CC(c2ccccc2)C2(CCN(c3ccccc3NS(=O)(=O)c3ccc(S(=O)(=O)N(C)C)cc3)CC2)C1=O (centres unmarked) [Compound A-318, N1,N1-dimethyl-N4-(2-{2-methyl-1-oxo-4-phenyl-2,8-diazaspiro[4.5]decan-8-yl}phenyl)benzene-1,4-disulfonamide]
Homo sapiens, HeLa, 2 h
  AC50: 2.01 to 8 µM

## CC1(C)CC2(CCN(c3ccccc3NS(=O)(=O)Cc3ccc(C(F)F)cc3)CC2)CO1 [Compound A-716, 1-[4-(difluoromethyl)phenyl]-N-(2-{3,3-dimethyl-2-oxa-8-azaspiro[4.5]decan-8-yl}phenyl)methanesulfonamide]
Homo sapiens, HeLa, 2 h
  AC50: 2.01 to 8 µM

## CN(C)S(=O)(=O)c1ccc(S(=O)(=O)Nc2ccccc2N2C3CC2CN(c2ccc(Cl)cc2F)C3)cc1 [Compound A-27, N4-{2-[3-(4-chloro-2-fluorophenyl)-3,6-diazabicyclo[3.1.1]heptan-6-yl]phenyl}-N1,N1-dimethylbenzene-1,4-disulfonamide]
Homo sapiens, HeLa, 2 h
  AC50: 2.01 to 8 µM

## COCC1(C)CCN(c2ccccc2NS(=O)(=O)c2ccc3c(c2)CCC(C(F)F)O3)CC1 (centres unmarked) [Compound A-644, 2-(difluoromethyl)-N-{2-[4-(methoxymethyl)-4-methylpiperidin-1-yl]phenyl}-3,4-dihydro-2H-1-benzopyran-6-sulfonamide]
Homo sapiens, HeLa, 2 h
  AC50: 2.01 to 8 µM

## CC(c1ccc(F)cc1N1CCC2(CC1)COC(C)(C)C2)S(=O)(=O)c1ccc(S(=O)(=O)N(C)C)cc1 (centres unmarked) [Compound A-737, 4-[1-(2-{3,3-dimethyl-2-oxa-8-azaspiro[4.5]decan-8-yl}-4-fluorophenyl)ethanesulfonyl]-N,N-dimethylbenzene-1-sulfonamide]
Homo sapiens, HeLa, 2 h
  AC50: ≥ 10 µM

## C[C@@H]1CC(OC2CCN(c3c(F)cccc3NS(=O)(=O)c3ccc(S(=O)(=O)N(C)C)cc3)CC2)C[C@H](C)O1 (stereo partly drawn) [Compound A-817, N4-[2-(4-{[(2R,6S)-2,6-dimethyloxan-4-yl]oxy}piperidin-1-yl)-3-fluorophenyl]-N1,N1-dimethylbenzene-1,4-disulfonamide]
Homo sapiens, HeLa, 2 h
  AC50: ≤ 2 µM

## CN(C)S(=O)(=O)c1ccc(S(=O)(=O)Nc2ccccc2N2CCC(O)(C(C)(C)C)CC2)cc1 [Compound A-471, N1-(2-(4-(tert-butyl)-4-hydroxypiperidin-1-yl)phenyl)-N4,N4-dimethylbenzene-1,4-disulfonamide]
Homo sapiens, HeLa, 2 h
  AC50: ≤ 2 µM

## CN(C)S(=O)(=O)c1ccc(S(=O)(=O)Nc2ccccc2N2CCC(C)(c3ccc(Cl)cc3)CC2)cc1 [Compound A-184, N4-{2-[4-(4-chlorophenyl)-4-methylpiperidin-1-yl]phenyl}-N1,N1-dimethylbenzene-1,4-disulfonamide]
Homo sapiens, HeLa, 2 h
  AC50: ≤ 2 µM

## CC(N1CCN(c2ccccc2NS(=O)(=O)c2ccc(S(=O)(=O)N(C)C)cc2)CC1)C(F)(F)F (centres unmarked) [Compound A-456, N1,N1-dimethyl-N4-{2-[4-(1,1,1-trifluoropropan-2-yl)piperazin-1-yl]phenyl}benzene-1,4-disulfonamide]
Homo sapiens, HeLa, 2 h
  AC50: ≤ 2 µM

## Cc1cnc(N2CCC(CN3CCC(F)(F)CC3)CC2)c(C(C)S(=O)(=O)c2ccc(S(=O)(=O)N(C)C)cc2)c1 (single isomer, unassigned) [Compound A-995, 4-((1-(2-(4-((4,4-difluoropiperidin-1-yl)methyl)piperidin-1-yl)-5-methylpyridin-3-yl)ethyl)sulfonyl)-N,N-dimethylbenzenesulfonamide]
  AC50: ≥ 10 µM

## CS(=O)(=O)c1ccc(S(=O)(=O)Nc2ccccc2N2CCC3(CC2)CN(Cc2ccncc2)c2cc(F)ccc23)cc1 [Compound A-403, N-(2-{6-fluoro-1-[(pyridin-4-yl)methyl]-1,2-dihydrospiro[indole-3,4′-piperidin]-1′-yl}phenyl)-4-methanesulfonylbenzene-1-sulfonamide]
Homo sapiens, HeLa, 2 h
  AC50: 2.01 to 8 µM

## CN(C)S(=O)(=O)c1ccc(S(=O)(=O)Nc2ccc3ccnn3c2N2CCCCC2)cc1 [Compound A-793, N1,N1-dimethyl-N4-[7-(piperidin-1-yl)pyrazolo[1,5-a]pyridin-6-yl]benzene-1,4-disulfonamide]
Homo sapiens, HeLa, 2 h
  AC50: 2.01 to 8 µM

## CN(C)S(=O)(=O)c1ccc(S(=O)(=O)Nc2ccccc2N2CCC(COC(C)(C)C)CC2)cc1 [Compound A-494, N4-(2-{4-[(tert-butoxy)methyl]piperidin-1-yl}phenyl)-N1,N1-dimethylbenzene-1,4-disulfonamide]
Homo sapiens, HeLa, 2 h
  AC50: ≤ 2 µM

## CCC1(N2CCOCC2)CCN(c2ccccc2NS(=O)(=O)c2ccc(S(=O)(=O)N(C)C)cc2)CC1 [Compound A-451, N4-{2-[4-ethyl-4-(morpholin-4-yl)piperidin-1-yl]phenyl}-N1,N1-dimethylbenzene-1,4-disulfonamide]
Homo sapiens, HeLa, 2 h
  AC50: ≤ 2 µM

## CC(c1cccc(F)c1N1CCC(CN2CCC(F)(F)CC2)CC1)S(=O)(=O)c1ccc(S(=O)(=O)N(C)C)cc1 (centres unmarked) [Compound A-804, 4-((1-(2-(4-((4,4-difluoropiperidin-1-yl)methyl)piperidin-1-yl)-3-fluorophenyl)ethyl)sulfonyl)-N,N-dimethylbenzenesulfonamide]
  AC50: ≤ 2 µM

## CN(C)S(=O)(=O)c1ccc(S(=O)(=O)Nc2ccccc2N2CCC(C(N)=O)(c3ccc(F)cc3F)CC2)cc1 [Compound A-163, 4-(2,4-difluorophenyl)-1-{2-[4-(dimethylsulfamoyl)benzenesulfonamido]phenyl}piperidine-4-carboxamide]
Homo sapiens, HeLa, 2 h
  AC50: ≥ 10 µM

## Cc1ccc(S(=O)(=O)Nc2ccccc2N2[C@@H]3CC[C@H]2C[C@H](c2ccccc2F)C3)cc1 [Compound A-119, N-{2-[(1R,3S,5S)-3-(2-fluorophenyl)-8-azabicyclo[3.2.1]octan-8-yl]phenyl}-4-methylbenzene-1-sulfonamide]
Homo sapiens, HeLa, 2 h
  AC50: ≤ 2 µM

## CN(C)C1CCCC12CCN(c1ccccc1NS(=O)(=O)c1ccc(S(=O)(=O)N(C)C)cc1)CC2 (centres unmarked) [Compound A-281, N4-{2-[1-(dimethylamino)-8-azaspiro[4.5]decan-8-yl]phenyl}-N1,N1-dimethylbenzene-1,4-disulfonamide]
Homo sapiens, HeLa, 2 h
  AC50: ≥ 10 µM

## CC1COCC(C)N1CC1CCN(c2c(F)cccc2NS(=O)(=O)c2ccc(S(=O)(=O)C(F)F)cc2)CC1 (centres unmarked) [Compound A-866, 4-difluoromethanesulfonyl-N-(2-{4-[(3,5-dimethylmorpholin-4-yl)methyl]piperidin-1-yl}-3-fluorophenyl)benzene-1-sulfonamide]
Homo sapiens, HeLa, 2 h
  AC50: ≤ 2 µM
